Here are results for two compounds from US20220204510A1, “2,3-DIHYDRO-1H-PYRROLIZINE-7-FORMAMIDE DERIVATIVE AND APPLICATION THEREOF” (CHIA TAI TIANQING PHARMACEUTICAL GROUP CO., LTD., priority 2018, published 2022).

One data set deals with HBV. Put plainly: qPCR test in the HBV in vitro test (HBV DNA in HepG2.2.15 cells). The following applies: Hepatitis B virus, 192 h, HBV DNA in HepG2.2.15 culture medium, day 8, read-out: Half maximal inhibitory concentration (EC50) of HBV. Format: cell-based. As to the method:
To evaluate the inhibitory effect of the compound on HBV by detecting content of HBV DNA in HepG2.2.15 cells in a real-time qPCR test, with EC50 of the compound as an indicator.
3.1. HepG2.2.15 cells (4×10^4 cells/well) were inoculated into a 96-well plate and cultured at 37° C. in 5% CO2 overnight. 3.2. On day 2, the compound was 3-fold diluted in gradient for a total of 8 dilution gradients. The compound at different concentrations was added into the culture wells in duplicate. The final concentration of DMSO in the culture medium was 1%. 1 μM GLS4 was used as a 100% inhibition control (the structure of GLS4 disclosed in WO2008154817A1 is as follows:
1% DMSO was used as a 0% inhibition control. 3.3. On day 5, the culture medium was replaced with a fresh culture medium containing the compound. 3.4. On day 8, the culture medium in the culture wells was collected, and the high-throughput DNA purification kit (Qiagen-51162) was used to extract DNA. For specific steps, refer to the product manual.
3.6. Each well of the 96-well PCR plate was added with 15 μL of the reaction mixture, and then with 10 μL of sample DNA or HBV DNA standard. 3.7. The reaction conditions for PCR: heating at 95° C. for 10 min, degeneration at 95° C. for 15 s, and extension at 60° C. for 1 min, with a total of 40 cycles.
3.8.1. Calculation of the inhibition percentage: % Inh.=[1−(DNA copy number in the sample−DNA copy number in 1 μM GLS4)/(DNA copy number in the DMSO control−DNA copy number in 1 μM GLS4)]×100. 3.8.2. Calculation of EC50: half maximal inhibitory concentration (EC50) of the compound for HBV was calculated using GraphPad Prism software. 3.8.3.

The nature of data set [1]: Metabolic stability in liver microsomes. Format: in vitro ADME. As to conditions: for half-life at 1 μM: 1 μM compound, 0.5 mg/mL; for microsomal CLint at 1 μM: read-out: CLint(mic). How it is done:
Experimental objective: to evaluate the metabolic stability of test compounds 18 and 25 in liver microsomes of rats, beagle dogs and cynomolgus monkeys
Experimental procedures: first, the test compound (10 mM) was subjected to a two-step dilution, where the compound was diluted to an intermediate concentration of 100 μM with 100% methanol, and the working solution was diluted to 10 μM with a potassium phosphate buffer; eight 96-well incubation plates were prepared, and named T0, T5, T10, T20, T30, T60, Blank and NCF60, respectively; the reaction time points corresponding to the first 6 incubation plates were 0, 5, 10, 20, 30 and 60 min, respectively; for the Blank plate, neither the test compound nor a control compound was added, and for the NCF60 plate, potassium phosphate buffer was used in an incubation of 60 min in place of a NADPH regeneration system solution; 10 μL of the test compound working solution and 80 μL of the microsome working solution (liver microsome protein concentration was 0.625 mg/mL) were added to the T0, T5, T10, T20, T30, T60 and NCF60 plates, while only the microsome working solution was added to the Blank plate, and all the incubation plates were then placed in a 37° C. water bath for pre-incubation for about 10 min; after the pre-incubation, 10 μL of a NADPH regeneration system working solution was added into each sample well of all the plates except the NCF60 plate and T0 plate to start the reaction, and 10 μL of potassium phosphate buffer was added to each well of the NCF60 plate; therefore, in the test compound or control compound samples, the final reaction concentrations of the compound, testosterone, diclofenac and propafenone were 1 μM, the concentration of the liver microsomes was 0.5 mg/mL, and the final concentrations of DMSO and acetonitrile in the reaction system were 0.01% (v/v) and 0.99% (v/v), respectively; after incubation for an appropriate time (such as 5, 10, 20, 30, and 60 min), 300 μL of a stop solution (acetonitrile solution containing 100 ng/mL tolbutamide and 100 ng/mL labetalol) was added to each sample well to stop the reaction; 300 μL of the stop solution and then 10 μL of the NADPH working solution were added to the T0 plate, all the sample plates were shaken and centrifuged in a centrifuge (3220×g) for 20 min, and then 100 μL of supernatant was taken from each well and diluted with 300 μL of pure water for liquid chromatography-tandem mass spectrometry analysis.

Where [2] appears, read: Sprague-Dawley (SD), rat, SD rats liver microsomes.
[3] abbreviates: cynomolgus monkey, Cynomolgus monkeys liver microsomes.
Setting [4] is: dog, Beagle dogs liver microsomes.

pEC50: −log10 of the molar value. Read-outs that look alike come from different tables or passages of the source.

For the compound `C[C@]1(NC(=O)C(=O)c2c(Cl)c(C(=O)Nc3ccc(F)c(F)c3)c3n2CCC3)CC[C@H](CC(=O)O)CC1` [Compound 18], in the data set on HBV, the pEC50 is 7.96. Besides, in data set [1] (setting [2]), the CLint scaled at 1 μM was less than 17.3 mL/min/kg, the half-life at 1 μM is more than 2.42 h and the microsomal CLint at 1 μM is less than 9.6 µL/min/mg. In data set [1] (setting [3]), the CLint scaled at 1 μM was less than 13 mL/min/kg, the half-life at 1 μM is more than 2.42 h and the microsomal CLint at 1 μM was less than 9.6 µL/min/mg. In data set [1] (setting [4]), the CLint scaled at 1 μM is less than 13.8 mL/min/kg, the half-life at 1 μM was more than 2.42 h and the microsomal CLint at 1 μM is less than 9.6 µL/min/mg.

Take `C[C@]1(NC(=O)C(=O)c2c(Cl)c(C(=O)Nc3cc(F)c(F)c(F)c3)c3n2CCC3)CC[C@H](CC(=O)O)CC1` [Compound 25]: the pEC50 in the data set with HBV is 8.40. Further, in data set [1] (setting [2]), the CLint scaled at 1 μM was less than 17.3 mL/min/kg, the half-life at 1 μM was more than 2.42 h and the microsomal CLint at 1 μM is less than 9.6 µL/min/mg. Further, in data set [1] (setting [3]), the CLint scaled at 1 μM was less than 13 mL/min/kg, the half-life at 1 μM was more than 2.42 h and the microsomal CLint at 1 μM is less than 9.6 µL/min/mg. Moreover, in data set [1] (setting [4]), the CLint scaled at 1 μM was less than 13.8 mL/min/kg, the half-life at 1 μM was more than 2.42 h and the microsomal CLint at 1 μM was less than 9.6 µL/min/mg.
